≈ marks a conversion by molar mass, not a printed value.
Experiments:
[1] = Solubility in 10 mM phosphate buffer (pH 7.0); type: physicochemical
Procedure: Solubility of the compounds of the present invention in 10 mM phosphate buffer (pH 7.0) was measured.

[2] = Partition coefficient using IAM column; type: physicochemical; details: IAM Fast Screening Mini-Column; Dulbecco's phosphate buffer (pH 7.4)
Procedure: Analysis by HPLC system was carried out under the conditions given below, and retention time of each substance was measured. • Column: IAM Fast Screening Mini-Column (Regis Technologies, Inc.) • Mobile phase: Dulbecco's phosphate buffer (pH 7.4) • Detection wavelength: 250 nm • Column temperature: room temperature • Injection amount: 5.0 to 20 μL • Flow rate: 0.5 mL/min • Sample solution: 5 mg of sample was dissolved in 100 μL of acetonitrile, and a mobile phase was added to make 1 mL of a sample solution.
The measured value was inserted into the following formula, and the partition coefficient (K′ IAM) was calculated. k′IAM=(tR−t0)/t0 t0: retention time of the peak derived from acetonitrile tR: retention time of the peak of the sample

[3] = Transportation rate into blood after oral administration; type: in vivo, Macaca fascicularis (crab-eating monkey); details: cynomolgus monkey, 10 mg/kg, Macaca fascicularis, plasma; for AUC(0-t): read-out: AUC 0→4 hr
Procedure: The compound of the present invention was administered orally to Macaca fascicularis (crab-eating monkey) at a dose of 10 mg/kg. The blood was collected with the lapse of time, and the concentration of each compound in the plasma was measured.

in vitro = details: human, Caco-2
Procedure: (§1) As a culture medium for the incubation, Dulbecco's modified Eagle's minimum essential medium (GIBCO BRL) supplemented with 10% fetal calf serum (GIBCO BRL), antibiotic-antimycotic mixture, liquid (GIBCO BRL), non-essential amino acid solution (GIBCO BRL) and 2 mmol/L L-glutamine (GIBCO BRL) was used. […] Propranolol was used as a positive control, and ^14C-mannitol was used as a negative control. LC-MS/MS was used for quantitative analysis of samples, and a liquid scintillation counter was used for quantitative analysis of ^14C-mannitol.
(§2) Papp: apparent permeation coefficient (cm/sec)
δQ/δt: permeation velocity (pmol/min)
A: area of monolayer cell=0.33 cm^2
(§3) C0: initial concentration at apical membrane side (pmol/mL)

ganglion cells of retina = test: Rat retinal ischemia reperfusion injury; type: in vivo; details: 100 mg/Kg oral, 15 minutes before ischemia and immediately after release, 7 days after reperfusion, P<0.05 vs control
Procedure: Male SD rats (body weight: 150-200 g, purchased from Charles River Japan, Inc.) were used. For anesthesia, a mixture of equivalent amounts of 50 mg/mL ketamine injection and 20 mg/mL xylazine injection was administered intramuscularly at 1.0 mL/Kg body weight into the femora of the rats 15 minutes before ischemia. To achieve ischemia, the optic nerve including central retinal artery was ligated using a Sugita Clip minitype (No. 98), and the blood flow was blocked for 55 minutes. Such ligation was released 55 minutes after the above ligation, and blood flow was made to run again into retina (hereinafter, referred to as ischemia reperfusion). For normal group, central retinal artery was only exposed and ischemia was not set up. After 7 days from reperfusion in ischemia, a tissue specimen was prepared. For preparation of the tissue specimen, an excess amount of pentobarbital solution was intraperitoneally administered to sacrifice the animal, and eyeball was enucleated. The enucleated eyeball was dipped and fixed for 24 hours in a fixing solution of 2% paraformaldehyde and 2.5% glutaraldehyde (0.1 M phosphate buffer, pH 7.4). […] The stained sections were observed under an optical microscope, and ganglion cells of retina per 0.25 mm width of retina section at 1-2 mm from the center of the optic disc were counted. […]

Caco-2 cells = test: Permeability test with Caco-2 cells; details: apical pH 6.5 → basolateral pH 7.4; 10 μm sample; 37° C.
Procedure: as §1, §2
δQ/δt: permeation velocity (pmol/min)
A: area of monolayer cell=0.33 cm^2
as §3

SMILES | Solubility [1] [µg/mL] | IAM (Log k′IAM) [2] | Cmax [3] [nM] | AUC(0-t) [3] [µM·h] | Papp A→B at 10 μm (in vitro) [×10⁻⁶ cm/s] | Ganglion cell count after retinal ischemia reperfusion (ganglion cells of retina) | Caco-2 Papp(a−b) (Caco-2 cells)
COCCOC(=O)N[C@@H](CC(C)C)C(=O)N[C@@H](Cc1ccccc1)C(=O)C(=O)NC1CC1 [Compound 4, ((1S)-1-((((1S)-1-Benzyl-2,3-dioxo-3-(cyclopropylamino)propyl)amino)carbonyl)-3-methylbutyl)carbamic acid 2-methoxyethyl ester] | 1300 (≈ 2900 µM) | 1.20 | 1200 | 1.9 | 2.7 | – | –
COCCOCCOC(=O)N[C@@H](CC(C)C)C(=O)N[C@@H](Cc1ccccc1)C(=O)C(=O)NC1CC1 [Compound 17, ((1S)-1-((((1S)-1-Benzyl-2,3-dioxo-3-(cyclopropylamino)propyl)amino)carbonyl)-3-methylbutyl)carbamic acid 5-methoxy-3-oxapentyl ester] | 650 (≈ 1320 µM) | 1.27 | 1100 | 2.4 | – | significantly suppressed the decrease | –
OCC(O)C(O)C(O)C(O)[14CH2]O (centres unmarked) [^14C-Mannitol, ^14C-mannitol] | – | – | – | – | – | – | 0.6 (cms^−1) × 10^−6

From patent US7491705B2, “Alpha-ketoamide derivative, and production method and use thereof” (Senju Pharmaceutical Co., Ltd., priority 2003, dated 2009)
